Values of other authors in publication PMC4004541, “PEG-Like Nanoprobes: Multimodal, Pharmacokinetically and Optically Tunable Nanomaterials” (PLoS ONE, 2014).

Set-up: method as in manufacturer's package insert
Settings: humans; ref manufacturer's package insert; cited from earlier work

SMILES: CC1(C)C(/C=C/C=C/C=C/C=C2\N(CCCCS(=O)(=O)O)c3ccc4ccccc4c3C2(C)C)=[N+](CCCCS(=O)(=O)[O-])c2ccc3ccccc3c21 [ICG, indocyanine green]
- Blood half-life: 2.5 to 3 min
